Experimental data as given in US20160046618A1, “Cyclopropyl Fused Thiazin-2-Amine Compounds as Beta-Secretase Inhibitors and Methods of Use” (AMGEN INC., priority 2014, published 2016).
Like-named read-outs stand apart in the source and are kept apart here.

Tests used:
[1] = tested on: Aβ40 in conditioned medium of cells stably expressing Amyloid Precursor Protein (APP); test: In vitro BACE-1 cell-based assay (Aβ40 sandwich ELISA); details: read-out: IC50 IP (μM) BACE1 cell
Summary of the method: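 APP-expressing cells treated 24 h at 37 °C with compound in 10-point dose response (top 100 μM or 10 μM, 0.1% DMSO final). Secreted Aβ40 in conditioned medium quantified by sandwich ELISA (pAb40 capture, biotinylated 6E10 detection, time-resolved europium fluorescence); IC50 from percent inhibition versus concentration.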

[2] = molecular target: human recombinant BACE1 (Homo sapiens (Human), UniProt P56817); test: In vitro enzymatic BACE1 FRET assay; format: biochemical; details: read-out: IC50 IP (μM) BACE1 enzyme
Summary of the method: (§1)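 Ni-NTA-purified recombinant protease incubated with compound; reaction started with 50 nM FRET peptide substrate (fluorophore/quencher flanking the BACE cleavage site) and run 1 h. Stopped with Tris buffer raising pH to neutral; fluorescence read at ex 488/em 590 nm.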

[3] = molecular target: Recombinant Cat D (Homo sapiens (Human), UniProt P07339); test: In vitro enzymatic Cathepsin D (Cat D) FRET assay; format: biochemical; details: read-out: IC50 IP (μM) CatD
Summary of the method: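 Human Cat D expressed in CHO cells was incubated for one hour in 0.05 M citrate pH 3.5, 5 mM CHAPS, 10% DMSO final, with 20 nM quenched FRET peptide substrate. Reactions were stopped with Tris buffer raising pH to neutrality. Cleavage was read as fluorescence at excitation 500 nm, emission 580 nm.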

[4] = molecular target: human recombinant BACE2 (Homo sapiens (Human), UniProt Q9Y5Z0); test: In vitro enzymatic BACE2 FRET assay; format: biochemical; details: read-out: IC50 IP (μM) BACE2 enzyme
Summary of the method: as §1

Sequence of human recombinant BACE1 (P56817 46-501): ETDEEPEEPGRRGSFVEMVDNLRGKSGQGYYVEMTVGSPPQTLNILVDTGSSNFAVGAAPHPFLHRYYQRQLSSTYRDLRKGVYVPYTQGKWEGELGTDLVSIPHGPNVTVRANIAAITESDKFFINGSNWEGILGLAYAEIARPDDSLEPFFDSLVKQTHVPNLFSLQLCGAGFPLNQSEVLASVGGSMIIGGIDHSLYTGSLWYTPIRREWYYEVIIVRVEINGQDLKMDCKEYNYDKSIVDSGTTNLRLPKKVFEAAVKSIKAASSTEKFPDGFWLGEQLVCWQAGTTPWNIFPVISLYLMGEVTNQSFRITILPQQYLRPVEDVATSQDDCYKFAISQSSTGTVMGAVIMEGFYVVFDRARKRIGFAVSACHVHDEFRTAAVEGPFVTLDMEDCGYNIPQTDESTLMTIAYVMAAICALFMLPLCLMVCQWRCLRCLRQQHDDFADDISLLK
Sequence of human recombinant BACE2 (Q9Y5Z0 63-518): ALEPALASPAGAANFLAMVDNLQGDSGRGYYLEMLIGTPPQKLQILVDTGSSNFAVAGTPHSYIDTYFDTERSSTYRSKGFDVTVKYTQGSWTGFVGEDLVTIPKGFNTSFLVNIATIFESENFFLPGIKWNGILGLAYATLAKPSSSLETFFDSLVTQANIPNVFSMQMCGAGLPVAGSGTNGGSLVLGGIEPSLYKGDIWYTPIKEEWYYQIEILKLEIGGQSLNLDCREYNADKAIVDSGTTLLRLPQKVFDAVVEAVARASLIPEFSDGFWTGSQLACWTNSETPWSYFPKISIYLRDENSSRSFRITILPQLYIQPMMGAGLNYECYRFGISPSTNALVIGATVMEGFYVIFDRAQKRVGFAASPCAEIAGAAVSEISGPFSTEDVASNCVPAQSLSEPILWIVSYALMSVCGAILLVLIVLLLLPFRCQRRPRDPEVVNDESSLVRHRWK
Sequence of Recombinant Cat D (P07339 65-412): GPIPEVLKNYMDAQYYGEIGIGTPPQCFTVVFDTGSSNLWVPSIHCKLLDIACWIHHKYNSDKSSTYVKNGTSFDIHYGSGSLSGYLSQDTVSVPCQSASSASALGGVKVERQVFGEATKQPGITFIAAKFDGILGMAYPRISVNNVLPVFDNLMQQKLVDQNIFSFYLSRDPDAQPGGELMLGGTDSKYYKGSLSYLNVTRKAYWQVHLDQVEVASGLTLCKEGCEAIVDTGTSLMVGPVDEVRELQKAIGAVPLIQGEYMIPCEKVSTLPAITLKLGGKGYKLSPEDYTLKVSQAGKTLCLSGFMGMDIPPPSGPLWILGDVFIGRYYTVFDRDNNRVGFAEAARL

| IC50 [1] [µM] | IC50 [2] [nM] | IC50 [3] [µM] | IC50 [4] [µM] | IC50 ([1]; BACE1 cell-based assay) [µM] | IC50 ([2]; BACE1 FRET enzyme assay) [nM] | IC50 ([3]; Cathepsin D FRET enzyme assay) [µM] | IC50 ([4]; BACE2 FRET enzyme assay) [µM] | SMILES |
| --- | --- | --- | --- | --- | --- | --- | --- | --- |
| – | – | – | – | 0.00306 | 3.97 | 975 | 0.0308 | COc1cnc2c(Nc3cc(F)c(F)c([C@@]4(C)N=C(N)S[C@@]5(CO)C[C@H]54)c3)ncnc2c1 [Example 58, ((1S,5S,6S)-3-amino-5-(2,3-difluoro-5-((7-methoxypyrido[3,2-d]pyrimidin-4-yl)amino)phenyl)-5-methyl-2-thia-4-azabicyclo[4.1.0]hept-3-en-1-yl)methanol] |
| 1.07 | 31.7 | 151 | 0.765 | – | – | – | – | COC[C@]12C[C@H]1[C@@](C)(c1cc(Nc3nccc4cc(OCc5nc(Br)cs5)cnc34)cc(F)c1F)N=C(N)S2 [Example 736, N-(3-((1S,5S,6S)-3-amino-1-(methoxymethyl)-5-methyl-2-thia-4-azabicyclo[4.1.0]hept-3-en-5-yl)-4,5-difluorophenyl)-3-((4-bromo-1,3-thiazol-2-yl)methoxy)-1,7-naphthyridin-8-amine] |
| 0.00933 | 6.24 | 571 | 0.00378 | – | – | – | – | C[C@]1(c2cc(Nc3nccc4cc(C#N)cnc34)cnc2F)N=C(N)S[C@@]2(CF)C[C@H]21 [Example 604, 8-((5-((1S,5S,6S)-3-amino-1-(fluoromethyl)-5-methyl-2-thia-4-azabicyclo[4.1.0]hept-3-en-5-yl)-6-fluoro-3-pyridinyl)amino)-1,7-naphthyridine-3-carbonitrile] |
| – | – | – | – | 0.0256 | 5.24 | 1210 | 0.0111 | COc1cnc2c(Nc3cc(F)c(F)c([C@@]4(C)N=C(N)S[C@@]5(CO)C[C@H]54)c3)ncc(F)c2c1 [Example 91, ((1S,5S,6S)-3-amino-5-(2,3-difluoro-5-((5-fluoro-3-methoxy-1,7-naphthyridin-8-yl)amino)phenyl)-5-methyl-2-thia-4-azabicyclo[4.1.0]hept-3-en-1-yl)methanol] |
| 0.00509 | 16.4 | 1080 | 0.2 | – | – | – | – | COc1ncc(Nc2nccc3nc(OCc4ncco4)cnc23)cc1[C@@]1(C)N=C(N)S[C@@]2(CF)C[C@H]21 [Example 626, N-(5-((1S,5S,6S)-3-amino-1-(fluoromethyl)-5-methyl-2-thia-4-azabicyclo[4.1.0]hept-3-en-5-yl)-6-methoxy-3-pyridinyl)-2-(1,3-oxazol-2-ylmethoxy)pyrido[3,4-b]pyrazin-5-amine] |
| 0.05 | 3.72 | > 133 | 0.464 | – | – | – | – | COC[C@H](C)Oc1cnc2c(Nc3cc(F)c(F)c([C@@]4(C)N=C(N)S[C@@]5(C(F)F)C[C@@H]45)c3)nccc2n1 [Example 894, N-(3-((1S,5S,6S)-3-amino-1-(difluoromethyl)-5-methyl-2-thia-4-azabicyclo[4.1.0]hept-3-en-5-yl)-4,5-difluorophenyl)-2-((1S)-2-methoxy-1-methylethoxy)pyrido[3,4-b]pyrazin-5-amine] |
| 0.00166 | 0.931 | 861 | 0.0291 | – | – | – | – | C[C@]1(c2cc(Nc3nccc4nc(OCc5ncco5)cnc34)cnc2F)N=C(N)S[C@@]2(C(F)F)C[C@@H]12 [Example 654, N-(5-((1S,5S,6S)-3-amino-1-(difluoromethyl)-5-methyl-2-thia-4-azabicyclo[4.1.0]hept-3-en-5-yl)-6-fluoro-3-pyridinyl)-2-(1,3-oxazol-2-ylmethoxy)pyrido[3,4-b]pyrazin-5-amine] |

The next lines start with the compound.

| SMILES | IC50 [1] [µM] | IC50 [2] [nM] | IC50 [3] [µM] | IC50 [4] [µM] | IC50 ([1]; BACE1 cell-based assay) [µM] | IC50 ([2]; BACE1 FRET enzyme assay) [nM] | IC50 ([3]; Cathepsin D FRET enzyme assay) [µM] | IC50 ([4]; BACE2 FRET enzyme assay) [µM] |
| --- | --- | --- | --- | --- | --- | --- | --- | --- |
| NC1=N[C@](CF)(c2cc(NC(=O)c3ccc(Cl)cn3)ccc2F)[C@@H]2C3CSC[C@]32S1 (stereo partly drawn) [Example 753, N-(3-((4S,4aS,7aR)-2-amino-4-(fluoromethyl)-4a,4b,5,7-tetrahydro-4H-thieno[3′,4′:2,3]cyclopropa[1,2-e][1,3]thiazin-4-yl)-4-fluorophenyl)-5-chloropicolinamide] | 0.0964 | 3.39 | 420 | 0.00304 | – | – | – | – |
| COC[C@H](C)Oc1cnc(C(=O)Nc2cc(F)c(F)c([C@@]3(C)N=C(N)S[C@@]4(COC)C[C@H]43)c2)cn1 [Example 1024, N-(3-((1S,5S,6S)-3-amino-1-(methoxymethyl)-5-methyl-2-thia-4-azabicyclo[4.1.0]hept-3-en-5-yl)-4,5-difluorophenyl)-5-((1S)-2-methoxy-1-methylethoxy)-2-pyrazinecarboxamide] | 0.0222 | 2.14 | 884 | 0.313 | – | – | – | – |
| CCNC(=O)[C@]12C[C@H]1[C@@](C)(c1cc(NC(=O)c3cnc(OCC(F)(F)F)cn3)ccc1F)N=C(N)S2 [Example 977, (1S,5S,6S)-3-amino-N-ethyl-5-(2-fluoro-5-(5-(2,2,2-trifluoroethoxy)pyrazine-2-carboxamido)phenyl)-5-methyl-2-thia-4-azabicyclo[4.1.0]hept-3-ene-1-carboxamide] | 0.00439 | 0.782 | 577 | 0.0876 | – | – | – | – |
| COC[C@H](C)Oc1cnc(C(=O)Nc2ccc(F)c([C@@]3(C)N=C(N)S[C@@]4(C(=O)NC5CC5)C[C@H]43)c2)cn1 [Example 1001, (1S,5S,6S)-3-amino-N-cyclopropyl-5-(2-fluoro-5-(((5-((1S)-2-methoxy-1-methylethoxy)-2-pyrazinyl)carbonyl)amino)phenyl)-5-methyl-2-thia-4-azabicyclo[4.1.0]hept-3-ene-1-carboxamide] | 0.00589 | 0.059 | 492 | 0.356 | – | – | – | – |
| C#CCOc1cnc(C(=O)Nc2cnc(F)c([C@@]3(C)N=C(N)S[C@@]4(COC)C[C@H]43)c2)c(C)n1 [Example 845, N-(5-((1S,5S,6S)-3-amino-1-(methoxymethyl)-5-methyl-2-thia-4-azabicyclo[4.1.0]hept-3-en-5-yl)-6-fluoro-3-pyridinyl)-3-methyl-5-(2-propyn-1-yloxy)-2-pyrazinecarboxamide] | 0.00473 | 2.6 | 1710 | 0.0257 | – | – | – | – |
| CC(C)(CF)NC(=O)[C@]12C[C@H]1[C@@](C)(c1cc(NC(=O)c3cnc(OCC(F)(F)F)cn3)ccc1F)N=C(N)S2 [Example 983, (1S,5S,6S)-3-amino-N-(1-fluoro-2-methylpropan-2-yl)-5-(2-fluoro-5-(5-(2,2,2-trifluoroethoxy)pyrazine-2-carboxamido)phenyl)-5-methyl-2-thia-4-azabicyclo[4.1.0]hept-3-ene-1-carboxamide] | 0.00736 | 1.51 | 172 | 0.174 | – | – | – | – |
| C#CCOc1cnc(C(=O)Nc2cc(F)c(F)c([C@@]3(C)N=C(N)S[C@@]4(CO)C[C@H]43)c2)cn1 [Example 61, N-(3-((1S,5S,6S)-3-amino-1-(hydroxymethyl)-5-methyl-2-thia-4-azabicyclo[4.1.0]hept-3-en-5-yl)-4,5-difluorophenyl)-5-(2-propyn-1-yloxy)-2-pyrazinecarboxamide] | – | – | – | – | 0.00035 | 0.3 | 59.7 | 0.0201 |
| COC[C@@]12C[C@@H]1[C@@](CF)(c1cc(NC(=O)c3ccc(Cl)cn3)cc(F)c1F)N=C(N)S2 [Example 96, N-(3-((1R,5S,6R)-3-amino-5-(fluoromethyl)-1-(methoxymethyl)-2-thia-4-azabicyclo[4.1.0]hept-3-en-5-yl)-4,5-difluorophenyl)-5-chloro-2-pyridinecarboxamide] | – | – | – | – | 0.0174 | 7.26 | 40.4 | 0.0024 |
| COC[C@@]12SC(N)=N[C@](C)(c3cc(NC(=O)c4ccc(Cl)cn4)ccc3F)[C@@H]1C2(F)F [Example 710, N-(3-((1S,5S,6R)-3-amino-7,7-difluoro-1-(methoxymethyl)-5-methyl-2-thia-4-azabicyclo[4.1.0]hept-3-en-5-yl)-4-fluorophenyl)-5-chloro-2-pyridinecarboxamide] | 0.055 | 5.99 | 379 | < 0.00203 | – | – | – | – |
| COCCOc1cnc2c(Nc3ccc(F)c([C@@]4(CF)N=C(N)S[C@@]5(COC)C[C@H]54)c3)ncnc2c1 [Example 947, N-(3-((1S,5S,6S)-3-amino-5-(fluoromethyl)-1-(methoxymethyl)-2-thia-4-azabicyclo[4.1.0]hept-3-en-5-yl)-4-fluorophenyl)-7-(2-methoxyethoxy)pyrido[3,2-d]pyrimidin-4-amine] | 0.0337 | 28.2 | 595 | 0.519 | – | – | – | – |
| COC[C@H](C)Oc1cnc(C(=O)Nc2cc(F)c(F)c([C@@]3(C)N=C(N)S[C@@]4(C#N)C[C@H]43)c2)cn1 [Example 1010, N-(3-((1S,5S,6S)-3-amino-1-cyano-5-methyl-2-thia-4-azabicyclo[4.1.0]hept-3-en-5-yl)-4,5-difluorophenyl)-5-(((S)-1-methoxypropan-2-yl)oxy)pyrazine-2-carboxamide] | 0.0309 | 3.2 | > 400 | 0.0669 | – | – | – | – |
